Measured values reported in publication PMC11343458, “Extracellular proteolysis of tandemly duplicated pheromone propeptides affords additional complexity to bacterial quorum sensing” (PLOS Biology, 2024).
Where two headings read alike, the source gives them in different places. No end group written: not given here.

Legend:
[1] = tested on: extracellular proteases in supernatants of B. subtilis 168, WB800 and individual protease mutants; experiment: Peptide maturation assay with B. subtilis supernatants, read by Rap^105 thermal shift; assay type: biochemical, Bacillus subtilis; conditions: 100 μm peptide, 1 h room temperature; 8 single protease mutants
Procedure: Overnight cultures of either B. subtilis strains 168, WB800, Δmpr, Δbpr, ΔaprE, Δepr, ΔwprA, Δvpr, ΔnprB, ΔnprE in GM1 media were diluted 1:20 into GM1 media and incubated at 37°C at 250 rpm. After 2 h, the OD600 were measured and adjusted to 0.5 with GM1 media, and 1 ml of bacterial cultures were centrifuged at 8,000 g for 2 min at room temperature and the supernatants were filtered using 0,2 μm nitrocellulose filters; 1 μl of 10 mM synthetic version of the mature pheromones (RRGHTA, RRGHTAS, SRGHTS, RGHTS, ERPVGT, Imat1^3T, Imat2^3T, Imat1^105, Imat2^105, and Imat3^105) were added to 99 μl of supernatant obtaining a final concentration of 100 μm and incubated for 1 h at room temperature. After incubation, reaction was stopped by incubation at 95°C for 5 min and sample was kept and used in Thermal Shift Assays (see before). In the kinetic assays, samples were inactivated at different times by incubation at 95°C for 5 min. Experiments were validated by experimental triplicates of 3 biological replicates.
(§1) The thermal shift assay was conducted in a CFX Opus Real-Time PCR system (Biorad). Samples of 20 μl containing 20× Sypro Orange (Sigma-Aldrich) and 50 μm of protein in a 20 mM Tris (pH 8) and 250 mM NaCl buffer or filtered supernatant in peptide maturation assays (see below) were loaded in 96-well PCR plates. In the cases where peptide interaction was analyzed, synthetic peptides at a final concentration of 100 μm were added to the assays. Samples were heated from 20 to 85°C in steps of 1 degree. Fluorescent intensity was plotted versus temperature and integrated with either CFX Opus Real-Time PCR automate model or GraphPad Prism software using a Boltzmann model to calculate melting temperatures.

Rap^105 = experiment: Thermal shift assay of Rap^105 with synthetic peptides; assay type: binding, phage phi105; conditions: 100 μm peptide, without supernatant incubation
Procedure: as §1

[2] = tested on: Rap^3T (PspoIIG-3xYFP sporulation reporter); experiment: Sporulation assay (PspoIIG-3xYFP reporter) in strain overexpressing Rap^3T; assay type: cell-based, Bacillus subtilis; conditions: strain 9836 hsRap(phi3T) PspoIIG-YFP, 1mM IPTG, 6 hrs in DSM, peptides added after 4.5hrs; for Mean %ON: mean of 3 repeats
Source text: (§2) Bacillus strains AES9822 (SacA::PsrfA-3xYFP Cm), AES9824 (SacA::PspoIIG-3xYFP Cm), AES9834 (sacA::Psrf-3xYFP cm amyE::hsRap^3T spec), and AES9836 ([…] cm amyE::hsRap^3T spec) were constructed by natural transformation of the pAEC1003, pAEC1103, and pAEC2836 (see next section) plasmids into a PY79;xpf background Bacillus subtilis strain.
For sporulation experiments, the expression levels of spoIIG promoter reporter were determinate in a liquid culture from an overnight starter in LB were diluted 1:100 into Schaeffer’s sporulation medium (DSM). The strains were grown at 37° with shaking at 220 RPM, with or without addition of 1 mM IPTG. After 4.5 h of growth, peptides were added at a concentration of 10 μm. Following an additional 1.5 h of growth, YFP fluorescence was measured using a Beckman Coulter cytoflex flow cytometer.

[3] = tested on: Rap^3T (PsrfA-3xYFP competence reporter); experiment: Competence reporter assay (PsrfA-3xYFP) in strain overexpressing Rap^3T; assay type: cell-based, Bacillus subtilis; conditions: strain 9834 hsRap(phi3T) Psrf-YFP, 1mM IPTG, 4hrs in MC, peptides added after 1 hr; for YFP, Mean: mean of 3 repeats
Source text: as §2
For competence experiments, the expression levels of the srf promoter reporter were determinate in a liquid culture generated from a single colony that was inoculated into MC competence media. The strains were grown at 37° with shaking at 220 RPM, with or without addition of 1 mM IPTG. […]

Rap^3T = experiment: Microscale thermophoresis (MST) of peptide binding to Rap^3T; design: species or system Bacillus phage phi3T
Procedure: Rap^3T was fluorescently labeled with NT-647 amine reactive dye from the Monolith NT Protein Labeling kit RED-NHS (NanoTemper Technologies) according to the manufacturer’s instructions. Briefly, 100 μm solution of the protein was mixed with 3× dye solution, incubated 30 min in dark, and then purified by gravity in a 5 ml size exclusion column equilibrated with dialysis buffer (20 mM Tris-HCl (pH 8), 250 mM NaCl) supplemented with 0.1% pluronic and 5% glycerol to remove free dye. Rap^105 was fluorescently labeled using His-Tag Labeling Kit RED-tris-NTA 2nd Generation. Briefly, 500 nM of protein was mixed with 5 μm dye in PBS supplemented with 0,02% of tween incubated in dark at room temperature for 30 min and centrifuged at 10,000 g for 10 min at 4°C, transferred to a fresh tube, and used in the assays immediately. Labeled proteins were used at a final optimized concentration of 20 nM in the case of Rap^3T and 250 nM in the case of Rap^105. For the measurements of EC50, a 16-point 2-fold serial dilution (ranged from 2 to 3 × 10^−5 μm) of the peptides were prepared in presence of the corresponding labeled Rap protein. After 15-min incubation at room temperature, samples were filled into standard Capillaries (K005, NanoTemper Technologies) and MST measurements were performed on a Monolith NT.115 (NanoTemper Technologies) in RED channel using 60% to 75% of LED excitation power and medium or high MST power for Rap^3T or Rap^105, respectively. […] Data analyses were performed with M.O. Affinity Analysis software (NanoTermper Technologies) applying cooperative (Hill coefficient) and non-cooperative (Kd model) models, with the first one yielding better fitting values.

[4] = tested on: extracellular proteases in supernatants of B. subtilis 168, WB800 and individual protease mutants; experiment: Peptide maturation assay with B. subtilis supernatants, read by Rap^3T thermal shift; assay type: biochemical, Bacillus subtilis; conditions: 100 μm peptide
Procedure: Overnight cultures of either B. subtilis strains 168, WB800, Δmpr, Δbpr, ΔaprE, Δepr, ΔwprA, Δvpr, ΔnprB, ΔnprE in GM1 media were diluted 1:20 into GM1 media and incubated at 37°C at 250 rpm. […] After incubation, reaction was stopped by incubation at 95°C for 5 min and sample was kept and used in Thermal Shift Assays (see before). In the kinetic assays, samples were inactivated at different times by incubation at 95°C for 5 min. Experiments were validated by experimental triplicates of 3 biological replicates.
as §1

[5] = tested on: WprA and Bpr proteases (B. subtilis supernatants); experiment: Kinetic (time course) maturation assay of Imat1^3T in 168, WprA and Bpr KO supernatants; assay type: biochemical, Bacillus subtilis; conditions: samples inactivated at different times, Rap^3T thermal shift
Source text: Fig 2 Propeptide maturation of Phr^3T and Phr^105 propeptides. Thermal shift assay experiments for maturation effect of supernatants from B. subtilis 168 and WB800 strains in immature version of the pheromones codified in Phr^3T (a) and Phr^105 (e), mean values of triplicates are plotted, 3 standard deviations from negative control maturation (WB800 supernatant) are highlighted in red. Error bars mark from the minimum to maximum values observed in the triplicates. Thermal shift assays with supernatants from B. subtilis 168, WB800, and individual protease mutant strains in maturation of peptides Imat2^3T(b), Imat1^105 (f), Imat2^105 (g) and Imat3^105 (h), mean values of triplicates are plotted, 3 standard deviations from negative control maturation (WB800 supernatant) are highlighted in red. Error bars mark from the minimum to maximum values observed in the triplicates. (c) Thermal shift slopes of the effect of individual mutations of 8 protease genes on Imat1^3T peptide maturation. (d) Kinetic assays comparing Imat1^3T peptide maturation in 168 supernatant and supernatants of WprA and Bpr protease KO mutants, relative maturation was calculated as fluorescence of the peak corresponding with the mature pheromone divided by the fluorescence of the peak corresponding with the non-maturated pheromone. […]

[6] = molecular target: Rap^3T (Bacillus phage phi3T); experiment: MST; Rap^3T labelled with NT-647 (RED-NHS) at 20 nM; peptides in a 16-point 2-fold dilution from 2 to 3 x 10^-5 μm; 20 mM Tris-HCl (pH 8), 250 mM NaCl, 0.1% pluronic, 5% glycerol; 15 min at room temperature; Hill model
[7] = molecular target: Rap^3T (Bacillus phage phi3T); experiment: thermal shift assay; Sypro Orange, 50 μm protein, 100 μm synthetic peptide, 20 mM Tris (pH 8), 250 mM NaCl (or filtered supernatant in the maturation assays), heated from 20 to 85°C

ERPVGTLKLA [Imat1^105, immature synthetic peptide […]]
maturation by supernatants of individual protease mutants of B. subtilis 168 (Rap^105 thermal shift) [1]: only for ΔwprA mutants | stabilization of Rap^105 in thermal shift assay (Rap^105): minimal stabilization

LKLAERPVGT [Imat2^105, immature synthetic peptide […]]
maturation by supernatants of individual protease mutants of B. subtilis 168 (Rap^105 thermal shift) [1]: maturated for all the supernatants | stabilization of Rap^105 in thermal shift assay (Rap^105): destabilization

RRGHTASIGFTDGHSYDIA
Mean %ON [2]: 42.9% | %ON (YFP), repeat I [2]: 59.6% | YFP, repeat I [2]: 5294 | % ON (YFP), repeat II [2]: 39.8% | YFP, repeat II [2]: 2641 | % ON (YFP), repeat III [2]: 29.3% | YFP, repeat III [2]: 2055 | YFP, Mean [3]: 8810.67 | YFP, repeat I [3]: 5838 | YFP, repeat II [3]: 10641 | YFP, repeat III [3]: 9953

RRGHTASIGFTDGHSYDIA [Imat1^3T]
binding to Rap^3T (MST), in words (Rap^3T; MST): weak affinity | maturation by B. subtilis 168 supernatant (Rap^3T thermal shift) ([4]; 1 h room temperature in filtered supernatant (GM1, OD600 0.5), stopped 95°C 5 min): effectively processed | maturation by supernatants of individual protease mutants of B. subtilis 168 (Rap^3T thermal shift) ([4]; 1 h room temperature, 8 single protease mutants): the supernatants from the ΔwprA and Δbpr mutants showed 2 slopes | maturation by B. subtilis WB800 (protease-deficient) supernatant (Rap^3T thermal shift) ([4]; 1 h room temperature, strain mutant in nprE, nprB, aprE, epr, bpr, mpr, vpr, wrpA): no increase in Rap^3T stabilization was observed | time course maturation with Δbpr supernatant [5]: fully mature the peptide at longer incubation times | time course maturation with ΔwprA supernatant [5]: minimal maturation levels even at these times

RRGHTASIGFTDGHSYDIA [Long1]
EC50 (Rap^3T; MST, Hill model, target 2e-8, MST-Power Medium, Nano - RED, 25.0°C, replicate 1 (first merge-set, c1), read-out: EC50 (Hill fit)): 133 nM | EC50 (Rap^3T; MST, Hill model, target 2e-8, MST-Power Medium, Nano - RED, 25.0°C, replicate 2 (second merge-set, c4), read-out: EC50 (Hill fit)): 134 nM | EC50 (Rap^3T; MST, Hill model, target 2e-8, MST-Power Medium, Nano - RED, 25.0°C, replicate 3 (third merge-set, c7), read-out: EC50 (Hill fit)): 186 nM

SIGFTDGHSYDIASRGHTS
Mean %ON [2]: 37.1% | %ON (YFP), repeat I [2]: 51.1% | YFP, repeat I [2]: 4889 | % ON (YFP), repeat II [2]: 30.7% | YFP, repeat II [2]: 2305 | % ON (YFP), repeat III [2]: 29.5% | YFP, repeat III [2]: 2121 | YFP, Mean [3]: 8018.67 | YFP, repeat I [3]: 5205 | YFP, repeat II [3]: 10226 | YFP, repeat III [3]: 8625

SIGFTDGHSYDIASRGHTS [Long2]
EC50 (Rap^3T; MO.Affinity export, one merged set, target 2e-8, On Time evaluation, hot region 4-5, excitation power 10, confidence limits 0 and #NUM! (no real fit), read-out: EC50 (Hill fit), merged set): 19800 nM

SSDVKITERPVGT [Imat0^105, immature synthetic peptide […]]
maturation by supernatants of individual protease mutants of B. subtilis 168 (Rap^105 thermal shift) [1]: reduced or null maturation activity in ΔnprE, Δbpr, and ΔwprA mutants | stabilization of Rap^105 in thermal shift assay (Rap^105): destabilization

RRGHTA
EC50 [6]: 5.28 nM | dTm [7]: 75 °C | stabilization of the denaturation temperature [7]: > 20 °C

RGHTS
EC50 [6]: 69.8 nM | stabilization of the denaturation temperature [7]: > 20 °C

RRGHTAS
EC50 [6]: 6.7 nM | stabilization of the denaturation temperature [7]: > 20 °C

SRGHTS
EC50 [6]: 20.8 nM | stabilization of the denaturation temperature [7]: > 20 °C
